Tested on: subjects with HD
Test: Phase 3 study: Clinical Global Impression of Change (CGI-C) response status
Type: in vivo, human
Description: As used herein, “Clinical Global Impression of Change” or CGI-C refers to a rating instrument based on a 7-point scale (range: 1=very much improved to 7-very much worse) that can be used to rate the overall global improvement of chorea since the initiation of study drug dosing. This scale is a modification of a scale developed by the Psychopharmacology Research Branch of the National Institute of Mental Health to rate the subject's overall improvement in clinical disorder and provides a global evaluation of improvement over time from the clinician's perspective.
In certain embodiments, the method is effective to result in an improvement in Clinical Global Impression of Change (CGI-C) response status, wherein subjects whose score is either a 1 (“very much improved”) or a 2 (“much improved”) in CGI-C were classified as responders. In certain embodiments, at least about 9% of subjects were classified as responders. In certain embodiments, at least about 10%, such as at least about 15%, at least about 20%, at least about 25%, or at least about 30% of subjects were classified as responders. In certain embodiments, at least about 25%, or at least about 30% of subjects were classified as responders after 12 weeks of treatment.
A Phase 3, randomized, double-blind, placebo-controlled study to evaluate the efficacy, safety, and tolerability of once-daily valbenazine in subjects with HD was conducted. The study included a 4-week screening period, an 8-week dose-adjustment period, a 4-week maintenance period, and a final study visit 2 weeks following the final dose of study drug.
Secondary endpoints included: • Clinical Global Impression of Change (CGI-C) response status ([…] of “very much improved” or “much improved”) at Week 12; • Patient Global Impression of Change (PGI-C) response status ([…] of “very much improved” or “much improved”) at Week 12; • Change from baseline to Week 12 in the Quality of Life in Neurological Disorders Upper Extremity Function; and • Change from baseline to Week 12 in the Neuro-QoL Lower Extremity Function.
Exploratory endpoints included: • Wearable movement sensors (in select sites; optional participation) using MC10 Inc., BIOSTAMP® NPOINT® system • Huntington Disease Health Index • Changes from the screening period baseline to each postbaseline study visit (Weeks 2 through 12) in the TMC based on site assessments • Changes from the screening period baseline to maintenance (the average of the Week 10 and Week 12 assessments) in the TMC based on video recording central rater assessments • CGI-C response at Weeks 2 through 10 • PGI-C response at Weeks 2 through 10 • The change from baseline to Weeks 4, 8, and 10 in the Neuro-QoL Upper Extremity Function T-score. • The change from baseline to Weeks 4, 8, and 10 in the Neuro-QoL Lower Extremity Function T-score • CGI-S at Weeks 2 through 12 • PGI-S at Weeks 2 through 12 • SF-36 at Week 12 • HD-HI at Week 10 and Week 12 • EQ-5D-5L at Week 10 and Week 12 • UHDRS scores for motor, behavior, and functional capacity assessment at Weeks 2 through 12 • Other UHDRS scores including functional assessment and independence scale at Week 12 • AS at Week 12 • Change from screening period in physical activity by movement sensors at the Week 10 visit period

SMILES: COc1cc2c(cc1OC)[C@H]1C[C@@H](OC(=O)[C@@H](N)C(C)C)[C@H](CC(C)C)CN1CC2 [Valbenazine, (S)-2-amino-3-methyl-butyric acid (2R,3R,11bR)-3-isobutyl-9,10-dimethoxy-1,3,4,6,7,11b-hexahydro-2H-pyrido[2,1-a]isoquinolin-2-yl ester]
- CGI-C response rate difference between treatment groups (valbenazine minus placebo) (Week 2): follows: Week 2 (7.71% [95% CI: −0.93, 17.87], nominal p = 0.1157),
- CGI-C response rate difference between treatment groups (valbenazine minus placebo) (Week 4): Week 4 (20.42% [95% CI: 7.53, 33.00], nominal p = 0.0012), Week 6
- CGI-C response rate difference between treatment groups (valbenazine minus placebo) (Week 6): (20.14% [95% CI: 4.04, 35.89], nominal p = 0.0151), Week 8
- CGI-C response rate difference between treatment groups (valbenazine minus placebo) (Week 8): (34.50% [95% CI: 16.46, 49.76], nominal p = 0.0001), and Week 10
- CGI-C response rate difference between treatment groups (valbenazine minus placebo) (Week 10): (24.80% [95% CI: 6.55, 41.18], nominal p = 0.0065).
- CGI-C @ week 12, % responders (Week 12, valbenazine group): 42.9%
- CGI-C @ week 12, % responders, Difference (Week 12, valbenazine vs placebo): 29.7%

Reference: patent publication US20260248771A1, “VALBENAZINE, A VMAT2 INHIBITOR, AS A FREE BASE A TOSYLATE OR DITOSYLATE SALT, FOR USE IN THE TREATMENT OF CHOREA ASSOCIATED WITH HUNTINGTON'S DISEASE” (Neurocrine Biosciences, Inc., priority 2022, published 2026)
